According to patent publication US20200325156A1, “HETEROARYL AMIDE COMPOUNDS, PREPARATION METHOD THEREFOR, PHARMACEUTICAL COMPOSITIONS THEREOF, AND APPLICATIONS THEREOF” (Rui Jin Hospital Affiliated to Shanghai Jiao Tong …, priority 2017, published 2020):

Experiments:
Type in all cases: cell-based
[1] = test system: human gastric cancer cells BGC-823; test: MTS cell growth inhibition, BGC-823; settings: 48 h; for inhibition at 10 µM: compound concentration 10 μM, read-out: Inhibition rate against BGC-823 at 10 μM (%); for IC50: growth inhibition
Procedure: (§1) 1) Medium: DMEM (Dulbecco's modified eagle medium) or RPMI1640 (containing 10% fetal bovine serum, 100 μg/mL ampicillin, 100 μg/mL streptomycin).
(§2) 2) Reagent: MTS reaction solution (containing 2 mg/mL of MTS (3-(4,5-dimethylthiazol-2-yl)-5-(3-carboxymethoxyphenyl)-2-(4-sulfophenyl)-2H-tetrazolium, inner salt); 100 μg/mL PES ([…])).
(§3) Human promyelocytic leukemia cells HL-60 (2×10^4 cells/well) cultured in vitro were incubated into a 96-well culture plate, the volume of cell-culture medium was 90 μL, and then 10 μL of the compound at each gradient concentration was added (the highest concentration was 10 μM, which was diluted stepwise by ⅓, and 8 concentration points were set in total; the system contained 0.1% DMSO (dimethyl sulfoxide)). The cell plate with uniformly mixed compound was cultured in a cell culture incubator (37° C.; 5% CO2) for 48 h, then 20 μμL of MTS reaction solution was added, uniformly mixed and incubated in the cell culture incubator (37° C.; 5% CO2) for 1-4 hr; OD values at 490 nm were measured by a microplate reader (VARIOSKAN FLASH, Thermo). Three parallels were set in each group of experiments, with 0.1% (a final concentration) DMSO as a negative control, and a medium without cells and compounds as a blank control. The cell growth inhibition rate was calculated by the following formula:
(§4) Cell growth inhibition rate%=1−(ODexperimental group−ODblank group)/(ODnegative group−ODblank group)×100%
(§5) 4) IC50 calculation: The semi-inhibitory concentration of the compound acting on cell was calculated using GradPad Prism 5 software according to the measured cell growth inhibition rate.
(§6) Human lung cancer cells A549, human gastric cancer cells BGC-823, human liver cancer cells HepG-2 and human breast cancer cells MCF-7, human osteosarcoma cells U2OS, human prostate cancer cells LNCAP cultured in vitro were added in a 96-well culture plate at 1,000-10,000 cells/well, incubated until adherence, and then the compound was added. As to other procedures, please refer to the method (1) above.

[2] = test system: Human lung cancer cells A549; test: MTS cell growth inhibition, A549; settings: compound concentration 10 μM, 48 h, MTS, read-out: Inhibition rate against A549 at 10 μM (%)
Procedure: as §1, §2, §3, §4, §5, §6

[3] = test system: human osteosarcoma cells U2OS; test: MTS cell growth inhibition, U2OS; settings: for inhibition at 10 µM / IC50: Homo sapiens, U2OS, 48 h, MTS; for inhibition at 10 µM: compound concentration 10 μM, read-out: Inhibition rate against U2OS at 10 μM (%); for IC50: growth inhibition; for growth inhibitory activity on U2OS (in words): summary of Tables 3 and 4
Procedure: as §1, §2, §3, §4, §5, §6

[4] = test system: human liver cancer cells HepG-2; test: MTS cell growth inhibition, HepG-2; settings: 48 h; for inhibition at 10 µM: HepG2, compound concentration 10 μM, read-out: Inhibition rate against HepG-2 at 10 μM (%); for IC50: HepG2, growth inhibition
Procedure: as §1, §2, §3, §4, §5, §6

[5] = test system: human prostate cancer cells LNCAP; test: MTS cell growth inhibition, LNCAP; settings: for inhibition at 10 µM / IC50: Homo sapiens, LNCaP, 48 h, MTS; for inhibition at 10 µM: compound concentration 10 μM, read-out: Inhibition rate against LNCAP at 10 μM (%); for IC50: growth inhibition; for growth inhibitory activity on LNCAP (in words): summary of Tables 3 and 4
Procedure: as §1, §2, §3, §4, §5, §6

[6] = test system: human breast cancer cells MCF-7; test: MTS cell growth inhibition, MCF-7; settings: MCF7, compound concentration 10 μM, 48 h, read-out: Inhibition rate against MCF-7 at 10 μM (%)
Procedure: as §1, §2, §3, §4, §5, §6

[7] = test system: Human promyelocytic leukemia cells HL-60; test: MTS cell growth inhibition, HL-60; settings: for inhibition at 10 µM / IC50: Homo sapiens, HL-60, 48 h, MTS; for inhibition at 10 µM: compound concentration 10 μM, read-out: Inhibition rate against HL-60 at 10 μM (%); for IC50: growth inhibition; for growth inhibitory activity on HL-60 (in words): summary of Tables 3 and 4
Procedure: as §1, §2, §3, §4, §5

## O=C(Nc1ccc(OC(F)(F)F)cc1)c1cc2scnc2[nH]1 [Compound I-6]
[1]
  inhibition at 10 µM: 64.5%
  IC50: 582 nM
[2]
  inhibition at 10 µM: 6.3%
[3]
  inhibition at 10 µM: 56.2%
  IC50: 929 nM
[4]
  inhibition at 10 µM: 66.5%
  IC50: 1980 nM
[5]
  inhibition at 10 µM: 55.8%
  IC50: 319 nM
[6]
  inhibition at 10 µM: 3.4%
[7]
  inhibition at 10 µM: 69.1%
  IC50: 217 nM

## COC(=O)c1ccc(NC(=O)c2cc3scnc3[nH]2)cc1 [Compound I-8]
[1]
  inhibition at 10 µM: 72.2%
[2]
  inhibition at 10 µM: 56.8%
[3]
  inhibition at 10 µM: 50.9%
  IC50: 6350 nM
[4]
  inhibition at 10 µM: 58.1%
[5]
  IC50: 6040 nM
[6]
  inhibition at 10 µM: 21.2%
[7]
  inhibition at 10 µM: 69.4%
  IC50: 1780 nM

## O=C(Nc1ccc(C(F)(F)F)cc1)c1cc2scnc2[nH]1 [Compound I-11]
[1]
  inhibition at 10 µM: 58.8%
  IC50: 849 nM
[2]
  inhibition at 10 µM: 7.6%
[3]
  inhibition at 10 µM: 56.2%
  IC50: 1510 nM
[4]
  inhibition at 10 µM: 62.9%
  IC50: 1470 nM
[5]
  inhibition at 10 µM: 56.1%
  IC50: 5260 nM
[6]
  inhibition at 10 µM: 7.4%
[7]
  inhibition at 10 µM: 71.2%
  IC50: 653 nM

## COc1ccc(NC(=O)c2cc3scnc3[nH]2)cc1 [Compound I-12]
[1]
  inhibition at 10 µM: 47.4%
  IC50: 952 nM
[2]
  inhibition at 10 µM: 9.3%
[3]
  inhibition at 10 µM: 57.7%
  IC50: 1520 nM
[4]
  inhibition at 10 µM: 58.3%
  IC50: 223 nM
[5]
  inhibition at 10 µM: 54.6%
  IC50: 6310 nM
[6]
  inhibition at 10 µM: 5.9%
[7]
  inhibition at 10 µM: 68.9%
  IC50: 590 nM

## CN(C)c1ccc(NC(=O)c2cc3scnc3[nH]2)cc1 [Compound I-13]
[1]
  inhibition at 10 µM: 54.3%
  IC50: 1110 nM
[2]
  inhibition at 10 µM: 3.4%
[3]
  inhibition at 10 µM: 53.2%
  IC50: 2680 nM
[4]
  inhibition at 10 µM: 54.7%
  IC50: 1930 nM
[5]
  inhibition at 10 µM: 48.6%
  IC50: > 10000 nM
[6]
  inhibition at 10 µM: < 0%
[7]
  inhibition at 10 µM: 69.7%
  IC50: 1300 nM

## CCN(CC)c1ccc(NC(=O)c2cc3scnc3[nH]2)cc1 [Compound I-15]
[1]
  inhibition at 10 µM: 71.7%
[2]
  inhibition at 10 µM: 69.4%
[3]
  inhibition at 10 µM: 53.5%
  IC50: > 10000 nM
[4]
  inhibition at 10 µM: 57.8%
[5]
  IC50: > 10000 nM
[6]
  inhibition at 10 µM: 23.8%
[7]
  inhibition at 10 µM: 63.2%
  IC50: 2710 nM

## O=C(Nc1ccc([N+](=O)[O-])cc1)c1cc2scnc2[nH]1 [Compound I-16]
[1]
  inhibition at 10 µM: 63.3%
[2]
  inhibition at 10 µM: 32.4%
[3]
  inhibition at 10 µM: 40.2%
[4]
  inhibition at 10 µM: 38.6%
[5]
  inhibition at 10 µM: 58%
[6]
  inhibition at 10 µM: 17.6%
[7]
  inhibition at 10 µM: 44.6%

## O=C(NCc1ccccc1-c1ccncc1)c1cc2scnc2[nH]1 [Compound I-22]
[1]
  inhibition at 10 µM: 64.6%
[2]
  inhibition at 10 µM: 54.8%
[3]
  inhibition at 10 µM: 50%
  IC50: 3660 nM
[4]
  inhibition at 10 µM: 48.9%
[5]
  inhibition at 10 µM: 64.3%
  IC50: 2570 nM
[6]
  inhibition at 10 µM: 15.1%
[7]
  inhibition at 10 µM: 65.2%
  IC50: 672 nM

## O=C(NCc1ccccc1-c1cccnc1)c1cc2scnc2[nH]1 [Compound I-23]
[1]
  inhibition at 10 µM: 71.1%
[2]
  inhibition at 10 µM: 53.4%
[3]
  inhibition at 10 µM: 56%
  IC50: 2920 nM
[4]
  inhibition at 10 µM: 60.4%
[5]
  inhibition at 10 µM: 64.4%
  IC50: 1580 nM
[6]
  inhibition at 10 µM: 27%
[7]
  inhibition at 10 µM: 70.5%
  IC50: 475 nM

## O=C(NCc1ccccc1-c1ccsc1)c1cc2scnc2[nH]1 [Compound I-24]
[1]
  inhibition at 10 µM: 51.2%
[2]
  inhibition at 10 µM: 20.1%
[3]
  inhibition at 10 µM: 37.6%
  IC50: 2750 nM
[4]
  inhibition at 10 µM: 38.2%
[5]
  inhibition at 10 µM: 48.7%
  IC50: 849 nM
[6]
  inhibition at 10 µM: 31.5%
[7]
  inhibition at 10 µM: 64.3%
  IC50: 2300 nM

## O=C(NCc1ccccc1-c1ccco1)c1cc2scnc2[nH]1 [Compound I-26]
[1]
  inhibition at 10 µM: 23.4%
[2]
  inhibition at 10 µM: < 0%
[3]
  inhibition at 10 µM: 44.5%
  IC50: 6170 nM
[4]
  inhibition at 10 µM: 29.7%
[5]
  inhibition at 10 µM: 44.9%
  IC50: 163 nM
[6]
  inhibition at 10 µM: 3.1%
[7]
  inhibition at 10 µM: 64.8%
  IC50: 3210 nM

## O=C(NCc1ccccc1-c1ccoc1)c1cc2scnc2[nH]1 [Compound I-27]
[1]
  inhibition at 10 µM: 55.1%
[2]
  inhibition at 10 µM: 67.9%
[3]
  inhibition at 10 µM: 44.9%
  IC50: 6 nM
  growth inhibitory activity on U2OS (in words): relatively good growth inhibitory activity
[4]
  inhibition at 10 µM: 43.2%
[5]
  IC50: 32 nM
  growth inhibitory activity on LNCAP (in words): relatively good growth inhibitory activity
[6]
  inhibition at 10 µM: 1.7%
[7]
  inhibition at 10 µM: 68.8%
  IC50: 0.012 nM
  growth inhibitory activity on HL-60 (in words): relatively good growth inhibitory activity

## O=C(NCc1ccccc1-c1cc2ccccc2o1)c1cc2scnc2[nH]1 [Compound I-28]
[1]
  inhibition at 10 µM: 60.3%
[2]
  inhibition at 10 µM: 50.3%
[3]
  inhibition at 10 µM: 48.7%
  IC50: 928 nM
  growth inhibitory activity on U2OS (in words): relatively good growth inhibitory activity
[4]
  inhibition at 10 µM: 44.4%
[5]
  inhibition at 10 µM: 71%
  IC50: 130 nM
  growth inhibitory activity on LNCAP (in words): relatively good growth inhibitory activity
[6]
  inhibition at 10 µM: 21%
[7]
  inhibition at 10 µM: 74.8%
  IC50: 5 nM
  growth inhibitory activity on HL-60 (in words): relatively good growth inhibitory activity

## CSc1ccc(OCc2cccc(NC(=O)c3cc4scnc4[nH]3)c2)cc1 [Compound I-31]
[1]
  inhibition at 10 µM: 20.4%
[2]
  inhibition at 10 µM: < 0%
[3]
  inhibition at 10 µM: 54.9%
  IC50: 8920 nM
[4]
  inhibition at 10 µM: 18.5%
[5]
  inhibition at 10 µM: 59.3%
  IC50: 2600 nM
[6]
  inhibition at 10 µM: 13.9%
[7]
  inhibition at 10 µM: 71.8%
  IC50: 491 nM

## CS(=O)(=O)c1ccc(OCc2cccc(NC(=O)c3cc4scnc4[nH]3)c2)cc1 [Compound I-32]
[1]
  inhibition at 10 µM: 9.2%
[2]
  inhibition at 10 µM: < 0%
[3]
  inhibition at 10 µM: 45.2%
  IC50: 5470 nM
[4]
  inhibition at 10 µM: < 0%
[5]
  inhibition at 10 µM: 41.5%
  IC50: 7030 nM
[6]
  inhibition at 10 µM: < 0%
[7]
  inhibition at 10 µM: 70.3%
  IC50: 1850 nM

## Cc1cn(-c2cc(NC(=O)c3cc4scnc4[nH]3)cc(C(F)(F)F)c2)cn1 [Compound I-35]
[1]
  inhibition at 10 µM: 44.4%
[2]
  inhibition at 10 µM: 59.5%
[3]
  inhibition at 10 µM: 42.2%
  IC50: 7850 nM
[4]
  inhibition at 10 µM: 50.5%
[5]
  inhibition at 10 µM: 61.9%
  IC50: 4740 nM
[6]
  inhibition at 10 µM: < 0%
[7]
  inhibition at 10 µM: 80.4%
  IC50: 7030 nM
